Experimental data taken from patent publication US8410126B2, “Pyrimidine inhibitors of PKTK2” (Boehringer Ingelheim International GmbH, priority 2009, dated 2013).
pIC50: −log10 of the molar value.

The compounds below were run against T1, PTK2 (Homo sapiens, UniProt Q05397) (assay: PTK2 enzyme test Assay 1 (DELFIA, poly-Glu-Tyr substrate, PT60 antibody)). Conditions: Assay 1 (values without *); 1 h pre-incubation, 50 μM ATP mix, final DMSO 2%.
T1 construct: purchased Invitrogen PV3832
Format: biochemical
Experimental: (§1) This test uses active PTK2 enzyme (Invitrogen Code PV3832) and poly-Glu-Tyr (4:1, Sigma P-0275) as the kinase substrate. The kinase activity is detected through the phosphorylation of the substrate in a DELFIA™ assay. The phosphorylated substrate is detected with the europium-labelled phosphotyrosine antibody PT60 (Perkin Elmer, No.: AD00400).
In order to determine concentration-activity curves with PTK2-inhibitors the compounds are serially diluted in 10% DMSO/H2O and 10 μL of each dilution are placed in each well of a 96-well microtitre plate (clear plate with a U-shaped base, Greiner No. 650101) (the inhibitors are tested in duplicates) and mixed with 10 μL/well of PTK2 kinase (0.01 μg/well). PTK2 kinase has been correspondingly diluted beforehand with kinase dilution buffer (20 mM TRIS/HCl pH 7.5, 0.1 mM EDTA, 0.1 mM EGTA, 0.286 mM sodium orthovanadate, 10% glycerol with the addition of freshly prepared BSA (fraction V, 1 mg/mL) and DTT (1 mM)). The test compound and the PTK2 kinase are pre-incubated for 1 h at RT and shaken at 500 revolutions per min. The reaction is started by the addition of 10 μL/well poly (Glu,Tyr) substrate (25 μg/well poly (Glu, Tyr), 0.05 μg/well biotinylated poly (Glu,Tyr) dissolved in 250 mM TRIS/HCl pH 7.5, 9 mM DTT)—the final concentration of DMSO is 2%. Then 20 μL of ATP Mix (30 mM TRIS/HCl pH 7.5, 0.02% Brij, 0.2 mM sodium orthovanadate, 10 mM magnesium acetate, 0.1 mM EGTA, 1× phosphatase inhibitor cocktail 1 (Sigma, No.: P2850), 50 μM ATP (Sigma, No.: A3377; 15 mM stock solution)) are added. After 1 h of kinase reaction (the plates are shaken at 500 rpm), the reaction is stopped by the addition of 12 μL/well 100 mM EDTA, pH 8.0 and shaken for a further 5 min at RT (500 rpm). 55 μL of the reaction mixture are transferred into a streptavidin plate (Strepta Well High Bind (transparent, 96-well) made by Roche, No.: 11989685001) and incubated for 1 h at RT (shaking at 500 rpm). Then the microtitre plate is washed three times with 200 μL/well D-PBS (Invitrogen, No. 14190). 100 μL of a solution containing DELFIA Eu-N1 Anti-Phosphotyrosine PT60 antibody (Perkin Elmer, No.: AD0040, diluted 1:2000 in DELFIA test buffer (Perkin Elmer, No.: 1244-111)) is then added and the mixture is incubated for 1 h at RT (shaking at 500 rpm). Then the plate is washed three times with 200 μL/well DELFIA washing buffer (Perkin Elmer, No.: 1244-114), 200 μL/well strengthening solution (Perkin Elmer, No.: 1244-105) are added and the mixture is incubated for 10 min at RT (shaking at 300 rpm).
The time-delayed europium fluorescence is then measured in a microtitre plate reader (VICTOR^3, Perkin Elmer). […] Wells that contain test buffer instead of enzyme are used as a control of the background kinase activity.
The IC50 values are determined from analyses of the concentration activity by iterative calculation with the aid of a sigmoid curve analysis algorithm (FIFTY, based on GraphPAD Prism Version 3.03) with a variable Hill coefficient.

T1 sequence (Q05397 whole entry): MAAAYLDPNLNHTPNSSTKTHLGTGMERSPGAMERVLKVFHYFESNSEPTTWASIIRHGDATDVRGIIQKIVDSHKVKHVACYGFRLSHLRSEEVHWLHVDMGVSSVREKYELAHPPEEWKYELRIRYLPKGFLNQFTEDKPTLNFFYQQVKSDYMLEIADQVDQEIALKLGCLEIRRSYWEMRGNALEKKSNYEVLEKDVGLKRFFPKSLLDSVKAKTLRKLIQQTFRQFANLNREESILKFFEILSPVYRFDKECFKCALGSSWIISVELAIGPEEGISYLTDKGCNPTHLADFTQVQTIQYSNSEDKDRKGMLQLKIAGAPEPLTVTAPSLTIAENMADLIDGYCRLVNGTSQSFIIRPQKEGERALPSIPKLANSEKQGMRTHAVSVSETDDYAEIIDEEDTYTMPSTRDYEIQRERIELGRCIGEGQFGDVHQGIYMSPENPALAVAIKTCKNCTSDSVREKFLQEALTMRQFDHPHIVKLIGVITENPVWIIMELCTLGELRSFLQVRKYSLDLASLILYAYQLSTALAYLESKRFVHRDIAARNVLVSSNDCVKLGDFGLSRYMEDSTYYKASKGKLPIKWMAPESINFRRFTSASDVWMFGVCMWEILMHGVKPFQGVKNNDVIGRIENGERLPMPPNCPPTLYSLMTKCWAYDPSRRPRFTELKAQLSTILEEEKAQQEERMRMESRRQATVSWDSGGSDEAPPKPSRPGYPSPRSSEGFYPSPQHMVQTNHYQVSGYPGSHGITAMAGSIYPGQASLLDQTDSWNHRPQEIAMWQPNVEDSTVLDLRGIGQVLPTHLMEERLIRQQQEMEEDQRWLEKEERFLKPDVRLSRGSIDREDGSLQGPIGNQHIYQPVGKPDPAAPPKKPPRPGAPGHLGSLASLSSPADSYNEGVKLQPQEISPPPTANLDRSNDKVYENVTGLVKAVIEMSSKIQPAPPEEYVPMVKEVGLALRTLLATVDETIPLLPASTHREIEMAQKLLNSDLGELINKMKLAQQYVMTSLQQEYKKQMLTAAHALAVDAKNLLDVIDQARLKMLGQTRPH

Row | SMILES | pIC50
1 | COc1cc(C(=O)NC2CCOCC2)ccc1Nc1ncc(C(F)(F)F)c(N[C@@H]2Cc3ccccc3[C@H]2NC(C)=O)n1 [Example I-15] | 8.40
2 | COc1cc(C(=O)NC2CCN(C)CC2)ccc1Nc1ncc(C(F)(F)F)c(N[C@@H]2Cc3ccccc3[C@H]2N(C)S(C)(=O)=O)n1 [Example I-5, 4-{4-[(1R,2R)-1-(methanesulphonyl-methyl-amino)-indan-2-ylamino]-5-trifluoromethyl-pyrimidin-2-ylamino}-3-methoxy-N-(1-methyl-piperidin-4-yl)-benzamide] | 8.70
3 | CNC(=O)c1ccc(Nc2ncc(C(F)(F)F)c(N[C@@H]3Cc4ccccc4[C@H]3NS(C)(=O)=O)n2)c(OC)c1 [Example I-10] | 8.70
4 | COc1cc(C(=O)NCCN(C)C)c(F)cc1Nc1ncc(C(F)(F)F)c(N[C@@H]2Cc3ccccc3[C@H]2N(C)S(C)(=O)=O)n1 [Example I-48] | 9.00
5 | COCCNC(=O)c1ccc(Nc2ncc(C(F)(F)F)c(N[C@@H]3Cc4ccccc4[C@H]3N(C)S(C)(=O)=O)n2)c(OC)c1 [Example I-45] | 8.70
6 | COc1nc(C)ccc1Nc1ncc(C(F)(F)F)c(N[C@@H]2Cc3ccccc3[C@H]2N(C)S(C)(=O)=O)n1 [Example I-96] | 7.96
7 | CONC(=O)c1ccc(Nc2ncc(C(F)(F)F)c(N[C@@H]3Cc4ccccc4[C@H]3NC(C)=O)n2)c(OC)c1 [Example I-17] | 8.70
8 | COc1cc(N2CCN(CC(=O)N(C)C)CC2)ccc1Nc1ncc(C(F)(F)F)c(N[C@@H]2Cc3ccccc3[C@H]2N(C)S(C)(=O)=O)n1 [Example I-40] | 8.52

Other lines, results leading:

Row | pIC50 | SMILES
9 | 8.52 | COc1cc(N2CCN(CC3CC3)CC2)ccc1Nc1ncc(C(F)(F)F)c(N[C@@H]2Cc3ccccc3[C@H]2N(C)S(C)(=O)=O)n1 [Example I-56]
10 | 8.15 | CNC(=O)c1ccc(Nc2ncc(Cl)c(N[C@@H]3Cc4ccccc4[C@H]3N(C)S(C)(=O)=O)n2)c(OC)c1 [Example I-34]
11 | 8.70 | COc1cc(Nc2ncc(C(F)(F)F)c(N[C@@H]3Cc4ccccc4[C@H]3N(C)S(C)(=O)=O)n2)ccc1NC(C)=O [Example I-92]
12 | 8.40 | COc1cc(C(=O)NC2CCC(N3CCN(CC4CC4)CC3)CC2)c(F)cc1Nc1ncc(C(F)(F)F)c(N[C@@H]2Cc3ccccc3[C@H]2N(C)S(C)(=O)=O)n1 (some centres unmarked) [Example I-51]
13 | 8.70 | COc1cc(C(=O)NC2CCCN(C)C2)ccc1Nc1ncc(C(F)(F)F)c(N[C@@H]2Cc3ccccc3[C@H]2NC(C)=O)n1 (some centres unmarked) [Example I-14]

What follows are compounds tested against T1, PTK2 (assay: PTK2 enzyme test Assay 2 (DELFIA, poly-Glu-Tyr substrate, PT66 antibody)). Conditions: Assay 2 (values marked *); 1 h pre-incubation, 50 μM ATP mix, final DMSO 0.5%.
Format: biochemical
Source text: as §1, with “by means of” for “through”, “PT66” for “PT60”, “AD0040).” for “AD00400).”
In order to determine concentration-activity curves with PTK2-inhibitors the compounds are serially diluted first of all in 100% DMSO and then in kinase dilution buffer (20 mM TRIS/HCl pH 7.5, 0.1 mM EDTA, 0.1 mM EGTA, 0.286 mM sodium orthovanadate, 10% glycerol with the addition of freshly prepared BSA (fraction V, 1 mg/mL) and DTT (1 mM)) and 10 μL of each dilution are dispensed per well in a 96-well microtitre plate (clear U-shaped base plate, Greiner No. 650101) (the inhibitors are tested in duplicates) and mixed with 10 μL/well of PTK2 kinase (0.01 μg/well). PTK2 kinase is diluted accordingly beforehand with kinase dilution buffer. The diluted PTK2 inhibitor and the PTK2 kinase are pre-incubated for 1 h at RT and shaken at 500 revolutions per min. Then 10 μL/well poly-Glu-Tyr substrate (25 μg/well poly-Glu-Tyr, 0.05 μg/well biotinylated poly-Glu-Tyr dissolved in 250 mM TRIS/HCl pH 7.5, 9 mM DTT) are added. The reaction is started by the addition of 20 μL of ATP Mix (30 mM TRIS/HCl pH 7.5, 0.02% Brij, 0.2 mM sodium orthovanadate, 10 mM magnesium acetate, 0.1 mM EGTA, 1× phosphatase inhibitor cocktail 1 (Sigma, No.: P2850), 50 μM ATP (Sigma, No.: A3377; 15 mM stock solution))—the final concentration of DMSO is 0.5%. After 1 h kinase reaction (the plates are shaken at 500 rpm), the reaction is stopped by the addition of 12 μL/well of 100 mM EDTA, pH 8, and shaken for a further 5 min at RT (500 U/min). 55 μL of the reaction mixture are transferred into a streptavidin plate (Strepta Well High Bind (transparent, 96-well) made by Roche, No.: 11989685001) and incubated for 1 h at RT (shaking at 500 rpm). Then the microtitre plate is washed five times with 200 μL/well D-PBS (Invitrogen, No. 14190). 100 μL of a solution containing DELFIA Eu-N1 Anti-Phosphotyrosine PT66 antibody (Perkin Elmer, No.: AD0040, diluted 1:9000 in DELFIA test buffer (Perkin Elmer, No.: 1244-111)) is then added and it is incubated for 1 h at RT (shaking at 500 rpm). Then the plate is washed five times with 200 μL/well DELFIA washing buffer (Perkin Elmer, No.: 1244-114), 200 μL/well strengthening solution (Perkin Elmer, No.: 1244-105) is added and the whole is incubated for 10 min at RT (shaking at 300 rpm).
The time-delayed europium fluorescence is then measured in a microtitre plate reader (VICTOR^3, Perkin Elmer). The positive control consists of wells that contain solvent (0.5% DMSO in test buffer) and display uninhibited kinase activity. Wells that contain test buffer instead of enzyme act as a control for the background kinase activity.
The IC50 values are determined from concentration-activity analyses by iterative calculation using a sigmoid curve analysis algorithm (FIFTY, based on GraphPAD Prism Version 3.03) with a variable Hill coefficient.

Row | SMILES | pIC50
14 | CCc1cc(Nc2ncc(C(F)(F)F)c(N[C@@H]3Cc4ccccc4[C@H]3N(C)S(C)(=O)=O)n2)c(OC)cc1N1CCN(C)CC1 [Example I-67, N-((1R,2R)-2-{2-[5-ethyl-2-methoxy-4-(4-methyl-piperazin-1-yl)-phenylamino]-5-trifluoromethyl-pyrimidin-4-ylamino}-indan-1-yl)-N-methyl-methanesulphonamide] | 9.17
15 | COc1ccc(NC(=O)C2CCN(C)CC2)cc1Nc1ncc(C(F)(F)F)c(N[C@@H]2Cc3ccccc3[C@H]2N(C)S(C)(=O)=O)n1 [Example I-62, 1-methyl-piperidine-4-carboxylic acid (3-{4-[(1R,2R)-1-(methanesulphonyl-methyl-amino)-indan-2-ylamino]-5-trifluoromethyl-pyrimidin-2-ylamino}-4-methoxy-phenyl)-amide] | 9.21
16 | COc1cc(C(=O)NN2CCN(C)CC2)ccc1Nc1ncc(C(F)(F)F)c(N[C@@H]2Cc3ccccc3[C@H]2N(C)S(C)(=O)=O)n1 [Example I-83] | 9.33
17 | COc1cc(NC(=O)C2CCN(C)CC2)ccc1Nc1ncc(C(F)(F)F)c(N[C@@H]2Cc3ccccc3[C@H]2N(C)S(C)(=O)=O)n1 [Example I-73, 1-methyl-piperidine-4-carboxylic acid (4-{4-[(1R,2R)-1-(methanesulphonyl-methyl-amino)-indan-2-ylamino]-5-trifluoromethyl-pyrimidin-2-ylamino}-3-methoxy-phenyl)-amide] | 9.32
18 | COc1ccc(C(=O)N(C)C2CCN(C)CC2)cc1Nc1ncc(C(F)(F)F)c(N[C@@H]2Cc3ccccc3[C@H]2N(C)S(C)(=O)=O)n1 [Example I-81] | 9.37
19 | COc1ccc(C(=O)NC2CCN(C)CC2)cc1Nc1ncc(C(F)(F)F)c(N[C@@H]2Cc3ccccc3[C@H]2N(C)S(C)(=O)=O)n1 [Example I-69] | 9.43
20 | COc1ccc(C(=O)NCCN(C)C)cc1Nc1ncc(C(F)(F)F)c(N[C@@H]2Cc3ccccc3[C@H]2N(C)S(C)(=O)=O)n1 [Example I-63, N-(2-dimethylamino-ethyl)-3-{4-[(1R,2R)-1-(methanesulphonyl-methyl-amino)-indan-2-ylamino]-5-trifluoromethyl-pyrimidin-2-ylamino}-4-methoxy-benzamide] | 9.15
21 | COc1cc(N2CCN(C)CC2=O)ccc1Nc1ncc(C(F)(F)F)c(N[C@@H]2Cc3ccccc3[C@H]2N(C)S(C)(=O)=O)n1 [Example I-86] | 9.51

Continued, values first:

Row | pIC50 | SMILES
22 | 9.08 | COc1cc(N2CCN(C(C)(C)C)CC2)c(C)cc1Nc1ncc(C(F)(F)F)c(N[C@@H]2Cc3ccccc3[C@H]2N(C)S(C)(=O)=O)n1 [Example I-78, N-((1R,2R)-2-{2-[4-(4-tert-butyl-piperazin-1-yl)-2-methoxy-5-methyl-phenylamino]-5-trifluoromethyl-pyrimidin-4-ylamino}-indan-1-yl)-N-methyl-methanesulphonamide]
23 | 9.25 | COc1cc(N2CCN(C)CC2)c(C)cc1Nc1ncc(C(F)(F)F)c(N[C@@H]2Cc3ccccc3[C@H]2N(C)S(C)(=O)=O)n1 [Example I-77]
